Reference: patent publication US10550143B2, “C,O-spiro aryl glycoside compounds, preparation therefor and use thereof” (SHANGHAI INSTITUTE OF MATERIA MEDICA, CHINESE ACADEMY OF …, priority 2015, dated 2020)

Biological target: T1, human sodium-glucose cotransporter 2 (SGLT2) (Homo sapiens, UniProt P31639)
T1 construct: expressed in transfected cells; host or cells: NIH3T3 (mouse fibroblast) cells expressing hSGLT2
T1 sequence (P31639 1-672): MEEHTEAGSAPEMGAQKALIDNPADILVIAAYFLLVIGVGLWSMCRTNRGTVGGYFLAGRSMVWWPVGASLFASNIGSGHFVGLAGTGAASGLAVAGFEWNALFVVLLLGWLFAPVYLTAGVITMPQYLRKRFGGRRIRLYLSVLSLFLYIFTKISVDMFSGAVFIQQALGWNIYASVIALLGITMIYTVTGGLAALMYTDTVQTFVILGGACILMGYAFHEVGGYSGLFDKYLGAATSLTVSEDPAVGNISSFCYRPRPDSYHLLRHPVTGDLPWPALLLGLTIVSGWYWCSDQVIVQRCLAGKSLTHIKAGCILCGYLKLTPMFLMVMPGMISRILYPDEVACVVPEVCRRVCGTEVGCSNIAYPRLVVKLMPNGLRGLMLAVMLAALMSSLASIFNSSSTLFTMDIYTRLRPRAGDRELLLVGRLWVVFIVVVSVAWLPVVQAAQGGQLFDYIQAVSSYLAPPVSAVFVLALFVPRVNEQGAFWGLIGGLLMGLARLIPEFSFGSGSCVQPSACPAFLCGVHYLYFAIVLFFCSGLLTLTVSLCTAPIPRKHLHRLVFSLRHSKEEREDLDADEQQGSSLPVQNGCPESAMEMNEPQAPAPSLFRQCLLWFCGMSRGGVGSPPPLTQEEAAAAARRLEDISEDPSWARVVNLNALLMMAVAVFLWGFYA
Test: In vitro SGLT2 inhibition, methyl-α-D-[U-14C]glucopyranoside uptake in NIH3T3-hSGLT2 cells
Format: cell-based
Settings: for inhibition at 0.01 µM: SGLT2, 10 nM, read-out: % Inhibition rate ± SD 10 nM; for inhibition at 0.1 µM: SGLT2, 100 nM, read-out: % Inhibition rate ± SD 100 nM
Procedure: Inhibition of the compounds of formula I against human sodium-glucose cotransporter 2 (SGLT2) was determined experimentally and the experimental procedures were carried out as reference^1.
Methyl-α-D-[U-^14C] glucopyranoside (Perkin Elmer) Dimethylsulfoxide (Genebase, Prod No: 0231)
(1) Primary screening of hSGLT2 are conducted with two concentrations, 100 nM and 10 nM;
SGLT2 transports D-glucose at 1:1 sodium-glucose ratio, glucose is replaced by the non-metabolic and isotope labeled methyl-aD-[U-^14C] glucopyranoside and methyl-aD-glucopyranoside, and the amount of isotope transferred into the cells was determined.
1) 0.2% gelatin in a 96-well plate was put in a 37° C. incubator for further use;
2) NIH3T3-hSGLT2 cells were injected into 96-well plates, 40000/well, and 100 μL culture medium per well:
3) the fluid was changed in the next day, and sodium butyrate was added into medium at a final concentration of 2 mM;
4) wash the cells with 100 μL of KRH—Na^+ for 3 times and incubate cells with 50 μL for 30 minutes. Cells were changed to 50 μL of compound in KRH—Na^+, uptake buffer (KRH—Na^+ and methyl-α-D-[U-^14C]glucopyranoside and ⅙ mM methyl-α-D-glucopyranoside at 10 μL per well) was added; KRH-acetylcholine solution was used as background control instead of KRH-Na^+
5) washed with 100 μL PBS for 3 times, dried, 50 μL lysate and 150 μL scintillation fluid were added, the membrane was covered and flattened, shaken on a shaker to mix thoroughly, centrifuged at 1500 rpm at 4° C. for 3 min, taken out and read;
6) the results were analyses.
The inhibition rate (% Inhibiton) of each sample at each concentration was calculated by dividing the value of the compound well value minus the background value by the value of the DMSO control well value minus the background value.
IC50 is calculated as follows: […]
The y value is the activity or inhibition percent, the x value is the concentration of the corresponding compound, top (the maximum y value of the curve), bottom (the minimum y value of the curve).

| inhibition at 0.01 µM | inhibition at 0.1 µM | IC50 (read-out: IC50 ± SD SGLT2) | Compound |
| --- | --- | --- | --- |
| 25.8 ± 15% | 55.8 ± 13.2% | – | C[C@H]1O[C@]2(OCc3ccc(Cc4ccc5ccccc5c4)cc32)[C@H](O)[C@@H](O)[C@@H]1O [Example A14, (1S,3′R,4′S,5′S,6′R)-6′-methyl-6-(naphthyl-2-methyl)-3′,4′,5′,6′-tetrahydro-3H-spiro [isobenzofuran-1,2′-pyran]-3′,4′,5′-triol] |
| 15.7 ± 25.2% | 27.9 ± 1.9% | – | Cc1ccc(Cc2ccc3c(c2)[C@]2(OC3)O[C@H](C)[C@@H](O)[C@H](O)[C@H]2O)s1 [Example A7, (1S,3′R,4′S,5′S,6′R)-6′-methyl-6-((5-methylthienyl)-2-methyl)-3′,4′,5′,6′-tetrahydro-3H-spiro [isobenzofuran-1,2′-pyran]-3′,4′,5′-triol] |
| 30.4 ± 4.8% | 59.1 ± 5.3% | 0.285 ± 0.117 µM | CCc1ccc(Cc2ccc3c(c2)[C@]2(OC3)O[C@H](C)[C@@H](O)[C@H](O)[C@H]2O)s1 [Example A8, (1S,3′R,4′S,5′S,6′R)-6′-methyl-6-((5-ethylthienyl)-2-methyl)-3′,4′,5′,6′-tetrahydro-3H-spiro [isobenzofuran-1,2′-pyran]-3′,4′,5′-triol] |
| 29.4 ± 11.1% | 31.4 ± 8.1% | – | C[C@H]1O[C@]2(OCc3ccc(Cc4ccc(-c5ccc(F)cc5)s4)cc32)[C@H](O)[C@@H](O)[C@@H]1O [Example A11, (1S,3′R,4′S,5′S,6′R)-6′-methyl-6-((5-(4-fluorophenyl)thienyl)-2-methyl)-3′,4′,5′,6′-tetrahydro-3H-spiro[isobenzofuran-1,2′-pyran]-3′,4′,5′-triol] |
| 34.7 ± 24% | 52.8 ± 15.5% | – | CCCc1ccc(Cc2ccc3c(c2)[C@]2(OC3)O[C@H](C)[C@@H](O)[C@H](O)[C@H]2O)s1 [Example A9, (1S,3′R,4′S,5′S,6′R)-6′-methyl-6-((5-propylthienyl)-2-methyl)-3′,4′,5′,6′-tetrahydro-3H-spiro [isobenzofuran-1,2′-pyran]-3′,4′,5′-triol] |
| 26 ± 14% | 28.9 ± 7.2% | – | COc1ccc(Cc2ccc3c(c2)[C@]2(OC3)O[C@H](C)[C@@H](O)[C@H](O)[C@H]2O)cc1 [Example A5, (1S,3′R,4′S,5′S,6′R)-6′-methyl-6-(4-methoxybenzyl)-3′,4′,5′,6′-tetrahydro-3H-spiro[isobenzofuran-1,2′-pyran]-3′,4′,5′-triol] |
| 31 ± 30.5% | 46.9 ± 8.6% | – | C[C@H]1O[C@]2(OCc3ccc(Cc4ccc(-c5ccccn5)s4)cc32)[C@H](O)[C@@H](O)[C@@H]1O [Example A13, (1S,3′R,4′S,5′S,6′R)-6′-methyl-6-((5-(2-pyridyl)thienyl)-2-methyl)-3′,4′,5′,6′-tetrahydro-3H-spiro[isobenzofuran-1,2′-pyran]-3′,4′,5′-triol] |

Continued, compound first:

| Compound | inhibition at 0.01 µM | inhibition at 0.1 µM | IC50 (read-out: IC50 ± SD SGLT2) |
| --- | --- | --- | --- |
| C[C@H]1O[C@]2(OCc3cc(Cl)c(Cc4ccc5occc5c4)cc32)[C@H](O)[C@@H](O)[C@@H]1O [Example A106, (1S,3′R,4′S,5′S,6′R)-6-(benzofuran-5-ylmethyl)-5-chloro-6′-methyl-3′,4′,5′,6′-tetrahydro-3H-spiro[isobenzofuran-1,2′-pyran]-3′,4′,5′-triol] | 4.8 ± 3.9% | 50.8 ± 7.5% | – |
| COc1ccc(Cc2cc3c(cc2Cl)CO[C@]32O[C@H](C)[C@@H](O)[C@H](O)[C@H]2O)cc1 [Example A25, (1S,3′R,4′S,5′S,6′R)-6′-methyl-6-(4-methoxybenzyl)-5-chloro-3′,4′,5′,6′-tetrahydro-3H-spiro[isobenzofuran-1,2′-pyran]-3′,4′,5′-triol] | 91.8 ± 5.1% | 101 ± 2.2% | – |
| C[C@H]1O[C@]2(OCc3cc(Cl)c(C(=O)c4ccc(C(F)(F)F)c(F)c4)cc32)[C@H](O)[C@@H](O)[C@@H]1O [Example A112, ((1S,3′R,4′S,5′S,6′R)-5-chloro-3′,4′,5′-trihydroxy-6′-methyl-3′,4′,5′,6′-tetrahydro-3H-spiro[isobenzofuran-1,2′-pyran]-6-yl)(3-fluoro-4-(trifluoromethyl)phenyl)ketone] | 34.9 ± 23% | 44.3 ± 15.6% | – |
| CCCc1ccc(Cc2ccc3c(c2)[C@]2(OC3)O[C@H](C)[C@@H](O)[C@H](O)[C@H]2O)cc1 [Example A3, (1S,3′R,4′S,5′S,6′R)-6′-methyl-6-(4-propylbenzyl)-3′,4′,5′,6′-tetrahydro-3H-spiro[isobenzofuran-1,2′-pyran]-3′,4′,5′-triol] | 23.1 ± 18.5% | 31 ± 9.7% | – |
| C[C@H]1O[C@]2(OCc3cc(F)c(Cc4ccc(-c5ccccn5)s4)cc32)[C@H](O)[C@@H](O)[C@@H]1O [Example A46, (1S,3′R,4′S,5′S,6′R)-6′-methyl-6-((5-(2-pyridyl)thienyl)-2-methyl)-5-fluoro-3′,4′,5′,6′-tetrahydro-3H-spiro[isobenzofuran-1,2′-pyran]-3′,4′,5′-triol] | 16 ± 14.8% | 63.6 ± 2.4% | – |
| CCOc1ccc(Cc2ccc3c(c2)[C@]2(OC3)O[C@H](C)[C@@H](O)[C@H](O)[C@H]2O)cc1 [Example A6, (1S,3′R,4′S,5′S,6′R)-6′-methyl-6-(4-ethyoxylbenzyl)-3′,4′,5′,6′-tetrahydro-3H-spiro[isobenzofuran-1,2′-pyran]-3′,4′,5′-triol] | 27 ± 15.7% | 27.6 ± 3.1% | – |
| C[C@H]1O[C@]2(OCc3cc(Cl)c(Cc4ccc(C5(C#N)CC5)cc4)cc32)[C@H](O)[C@@H](O)[C@@H]1O [Example A108, 1-(4-(((1S,3′R,4′S,5′S,6′R)-5-chloro-3′,4′,5′-trihydroxy-6′-methyl-3′,4′,5′,6′-tetrahydro-3H-spiro[isobenzofuran-1,2′-pyran]-6-yl)methyl)phenyl)cyclopropane-1-formonitrile] | 100.4 ± 0.9% | 96.2 ± 3.4% | – |
| CCc1ccc(C(O)c2cc3c(cc2Cl)CO[C@]32O[C@H](C)[C@@H](O)[C@H](O)[C@H]2O)s1 (some centres unmarked) [Example A120] | 4 ± 9.2% | 22.8 ± 8.1% | – |
| C[C@H]1O[C@]2(OCc3ccc(Cc4cc5ccccc5o4)cc32)[C@H](O)[C@@H](O)[C@@H]1O [Example A16, (1S,3′R,4′S,5′S,6′R)-6′-methyl-6-(benzo[b]furan-2-methyl)-3′,4′,5′,6′-tetrahydro-3H-spiro [isobenzofuran-1,2′-pyran]-3′,4′,5′-triol] | 27.5 ± 19.6% | 39 ± 16.1% | – |
| C[C@H]1O[C@]2(OCc3cc(Cl)c(Cc4ccc(-c5ccccn5)s4)cc32)[C@H](O)[C@@H](O)[C@@H]1O [Example A33] | 25 ± 9.3% | 20.7 ± 7.5% | – |
| CCOCCc1ccc(Cc2cc3c(cc2Cl)CO[C@]32O[C@H](C)[C@@H](O)[C@H](O)[C@H]2O)s1 [Example A115, (1S,3′R,4′S,5′S,6′R)-5-chloro-6-((5-(2-ethoxyethyl)thiophene-2-yl)methyl)-6′-methyl-3′,4′,5′,6′-tetrahydro-3H-spiro[isobenzofuran-1,2′-pyran]-3′,4′,5′-triol] | 78.1 ± 5.1% | 53.8 ± 5.5% | – |
| C#Cc1cc2c(cc1Cc1ccc(CC)s1)[C@]1(OC2)O[C@H](C)[C@@H](O)[C@H](O)[C@H]1O [Example A85, (1S,3′R,4′S,5′S,6′R)-5-ethynyl-6′-methyl-6-((5-ethylthienyl)-2-methyl)-3′,4′,5′,6′-tetrahydro-3H-spiro[isobenzofuran-1,2′-pyran]-3′,4′,5′-triol] | 33.9 ± 14.1% | 50.4 ± 16.9% | – |
| C[C@H]1O[C@]2(OCc3cc(Cl)c(Cc4ccc(C(F)(F)F)cc4)cc32)[C@H](O)[C@@H](O)[C@@H]1O [Example A110] | 93 ± 5.9% | 71.5 ± 7.2% | – |
